Experiment [1] concerns alc expression cassette 35S-alcR/alcA-CAT (CAT reporter gene expression). Nature of the experiment: CAT activity in leaves of stably transformed tobacco after leaf paint with inducer. The class given is in vivo. How it is done:
Cyclohexanone was applied to the plant leaves as a paint. The cyclohexanone paint consisted of a 10% solution of 950 g/L cyclohexanone, 35 g/L syperonic NDE 1800, 16.5 g/L Tween 85 in thickener. Both surfaces of the leaf were applied with paint at 100 μl solution per 16-25 cm^2 of leaf surface, on days 0 and 2. Leaf tissue was harvested prior to inducer application and at appropriate times after the second application of paint. 1 cm^2 of leaf tissue was removed with a sterile scalpel, put in an eppendorf, and immersed in liquid nitrogen. CAT assays were undertaken within 4 hours of leaf sampling.
The leaf tissue was allowed to defrost at room temperature for several minutes after storage in liquid nitrogen. A sterile micropestle was used to grind the leaf tissue in the eppendorf for 30 seconds and then 100 μl of 100 mM Tris pH 7.8 was added. The plant mixture was then vortexed for 20 seconds and centrifuged at 13,000 revs/min for 5 minutes. The supernatant was transferred to a new eppendorf. 50 μl of leaf extract was used for a CAT assay and the rest was used to determine the protein concentration wit the Bradford's method.
CAT assays were undertaken according to the Dupont method as described in Example 4.
The data obtained from this analysis are shown in FIG. 9: at each time point, results are given in the order S34:D3:T1. Leaves were treated with cyclohexanone leaf paint on day 0 and day 2. Samples of leaf tissue were taken immediately prior to each treatment (0-0 and 2-0 in FIG. 9) and thereafter at seven intervals up until day 3. Protein extracts were made from the leaf samples and CAT activity determined in the samples using the diffusion assay described above.
The leaves of the plants were painted with a 10% iso-propanol solution at 0 and 60 minutes and the CAT expression of leaf samples was measured at 240 minutes. The CAT expression found in the alcA-CAT and alcA-CAT/35S-alcR transgenic plants at 0 minutes was low as it was in the control untransformed tobacco plants.

In experiment [2] the test system is ADHI expressed from the alcA gene. The settings on record: Creaser et al 1984 / shown previously; cited from earlier work.
For experiment [3], the system named is alcA:35S chimeric promoter (CAT reporter gene expression). In words: CAT expression from wild type A nidulans alcA-CAT transformants GA2-1 and GA2-5. The class given is cell-based, Aspergillus nidulans. How it is done: Conidial suspensions of A nidulans were grown in supplemented minimal medium containing 0.1% fructose as the carbon source, for 20 hours at 200 revs/min in an orbital incubator at 37° C. Inducing chemical was added to the mycelia at 20 hours and allowed to grow for a further 4 hours. The mycelia was harvested as before. Uninduced mycelia was allowed to grow for 24 hours in the medium described above.
300 mgs of mycelia, frozen in liquid nitrogen, was ground in a chilled pestle and mortar with an equal amount of acid washed sand for 20 seconds. 1 ml of extraction buffer, (0.1 M Tris pH 7.5), was added and the mycelia ground for a further 30 seconds. Another 1 ml of extraction buffer was added and the mycelia was ground again for 30 seconds. 1 ml of the ground mycelia mixture was transferred into eppendorfs and centrifuged at 13,000 revs/min for 5 minutes in a microcentrifuge. The supernatant was transferred to new eppendorfs and the protein concentration estimated using the Bradford's assay.
Stably transformed A nidulans was obtained by co-transforming a pyrG89 strain with the pDJB3 and palcA-CAT/pUC plasmids using the PEG method. Plasmid palcA-CAT/pUC contains the CAT reporter gene between the alcA:35S chimeric promoter and the nos transcription terminator. Two independent transformants (GA2-1 and GA2-5) were obtained which contained uninterrupted copies of the alcA-CAT construct. This was shown by probing genomic DNA, restricted with HindIII, with the 0.7 kb SalI fragment of the CAT gene.
The CAT activity of the alcA-CAT A nidulans transformants was measured when they were grown under a variety of conditions. FIG. 4 is a graph showing CAT expression from the GA2-1 and GA2-5 transformants (wild type with alcA-CAT construct) growing in 0.1% fructose (F) or 1% glucose (G) in the absence or presence of 50 mM ethyl methyl ketone as inducer (I). […] The induction of CAT was prevented when the transformants were grown in 1% glucose even in the presence of inducer indicating the carbon catabolyte repression function of the alcA promoter was retained.
FIG. 5 is a graph showing the effect of cyclohexanone concentration (mM) on CAT expression in the transformant GA2-1 growing in 0.1% fructose (F) or 1% glucose (G).

Each structure is given as a SMILES string.

`CC(C)O` [iso-propanol, propan-2-ol]: the “increase in CAT activity” value in experiment [1] (10% solution painted at 0 and 60 minutes, measured at 240 minutes, alcA-CAT, alcA-CAT/35S-alcR and control plants) is “no significant increase”. For the same compound, the “effect on the alc expression cassette” value in experiment [1] (tobacco plants) is reported as “no apparent effect”. Moreover, the “inducer strength for alcA / ADHI” value in experiment [2] was “weak inducer”.
For `CCC(C)=O` [EMK, butan-2-one (ethyl methyl ketone)], in experiment [3] (GA2-1 and GA2-5, 0.1% fructose, 50 mM inducer), the “CAT activity of the alcA-CAT reporter construct” value is “high”. Besides, the “induction of CAT” value in experiment [3] (GA2-1 and GA2-5, 1% glucose, 50 mM inducer) is “prevented”.
Consider `O=C1CCCCC1` [cyclohexanone], for which the “effect on CAT activity” value in experiment [1] is “no effect”. The “CAT expression level after application to leaves” value in experiment [1] (plant D3 (35S-alcR/alcA-CAT), cyclohexanone leaf paint) is “high CAT expression level”. Also, the “time of peak CAT activity after the second inducing treatment” value in experiment [1] (plant D3, leaf paint on day 0 and day 2) was 160 min. For the same compound, the “CAT activity as % of the maximum activity seen in the 35S-alcR/alcA-CAT leaves” value in experiment [1] (plants T1 and S34 after cyclohexanone leaf paint) is 5-20%. In experiment [3] (GA2-1 transformant), the “concentration of optimal inducing ability (concentration curve)” value worked out at 25 mM and the “induction of CAT expression” value is “found to induce CAT expression”. The “inducer strength for alcA / ADHI” value in experiment [2] is listed as “potent inducer”.
